From patent publication US20150291625A1 (PFIZER INC., priority 2012, published 2015) come the findings set out here.

In experiment [1] the target is T1, D1 (Homo sapiens, UniProt P21728). In words: Human D1 receptor binding assay ([3H]-SCH23390 competition). Particulars: Human D1 Receptor Binding, Ki (nM), Geometric mean of 2-4 determinations, a: >=5 determinations, d: single determination.
For experiment [2], the target named is T1, D1. In words: D1 cAMP HTRF assay (HEK293T/hD1#1 stable cell line). The format is cell-based. Details: expressed in transfected cells. An excerpt: This assay was used to determine the ability of a test compound to agonize (including partially agonize) D1. A Mab anti-cAMP labeled Cryptate visualizes the tracer. […] The signal, therefore, is inversely proportional to the concentration of cAMP in the sample.
The cAMP Dynamic kit was obtained from Cisbio International (Cisbio 62AM4PEJ). Multidrop Combi (Thermo Scientific) was used for assay additions. Envision (PerkinElmer) reader was used to read HTRF.
A HEK293T/hD1#1 stable cell line was constructed internally (Pfizer Ann Arbor). […] One mL aliquots of the cells were made in Cryo-vials and frozen at −80° C. for future use in the D1 HTRF assay.
Frozen cells were quickly thawed, re-suspended in 50 mL warm media and allowed to sit for 5 min prior to centrifugation (1000 rpm) at room temperature. Media was removed and cell pellet was re-suspended in PBS/0.5 μM IBMX generating 2e5 cells/mL. […] Cells and compounds were incubated at room temperature for 30 min. Working solutions of cAMP-D2 and anti-cAMP-cryptate were prepared according to Cisbio instructions. Using Multidrop, 5 μL cAMP-D2 working solution was added to the assay plate containing the test compound and cells. Using Multidrop, 5 μL anti-cAMP-cryptate working solutions was added to assay plate containing test compound, cells and cAMP-D2. Assay plate was incubated for 1 hour at room temperature. Assay plate was read on Envision plate reader using Cisbio recommended settings. A cAMP standard curve was generated using cAMP stock solution provided in the Cisbio kit.
Data analysis was done using computer software. Percent effects were calculated from the compound controls. Ratio EC50 was determined using the raw ratio data from the Envision reader. The cAMP standard curve was used in an analysis program to determine cAMP concentrations from raw ratio data. cAMP EC50 was determined using the calculated cAMP data.
A general note: Time-resolved FRET reads energy transfer from a long-lived donor to a nearby acceptor.

Several values for one entry are separate records, joined by “and”; a condition that tells them apart may be missing. Equal entries are not always repeated. Structures can show the parent of a compound that is named as a salt.

By Ki is commonly meant the dissociation constant of the complex between target and ligand, obtained from inhibition or displacement. Low readings indicate a stronger hold on the target, high ones a looser hold on the target. For orientation: EC50 means the concentration at which the effect is half-maximal. Read a low EC50 as an effect from little substance.

T1 sequence (P21728 whole entry): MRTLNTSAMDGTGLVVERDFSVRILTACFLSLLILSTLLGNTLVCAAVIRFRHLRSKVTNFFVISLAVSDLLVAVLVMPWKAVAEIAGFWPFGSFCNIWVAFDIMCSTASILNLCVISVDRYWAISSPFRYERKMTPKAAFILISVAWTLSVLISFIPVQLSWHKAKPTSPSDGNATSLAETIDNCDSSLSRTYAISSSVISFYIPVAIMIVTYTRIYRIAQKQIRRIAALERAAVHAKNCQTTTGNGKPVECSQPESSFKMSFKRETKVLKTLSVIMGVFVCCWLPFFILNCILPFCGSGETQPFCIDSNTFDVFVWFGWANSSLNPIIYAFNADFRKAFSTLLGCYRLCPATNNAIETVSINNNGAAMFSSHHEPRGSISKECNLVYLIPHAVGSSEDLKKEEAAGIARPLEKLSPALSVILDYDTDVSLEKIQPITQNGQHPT

With `Cc1cc(Oc2nccc3occc23)ccc1-c1c(C)nc(N)c2nccn12` [Example 112, 5-[4-(furo[3,2-c]pyridin-4-yloxy)-2-methylphenyl]-6-methylimidazo[1,2-a]pyrazin-8-amine], the Ki in experiment [1] is 13.8 nM. For the same compound, in experiment [2], a half-maximal response (EC50) required 156 nM.
Taken in the same sequence, the figures for `Cc1cc(Oc2nccc3occc23)ccc1-c1c(C)ncnc1N1CC[C@@H](F)C1` [Example 185, 4-(4-{4-[(3R)-3-fluoropyrrolidin-1-yl]-6-methylpyrimidin-5-yl}-3-methylphenoxy)furo[3,2-c]pyridine, trifluoroacetate salt] were 64.2 nM and 1160 nM.
Taken in the same sequence, the figures for `Cc1cc(Oc2nccc3occc23)ccc1-c1c(C)ncc(=O)n1C` (single isomer, unassigned) [Example 121, (−)-6-[4-(furo[3,2-c]pyridin-4-yloxy)-2-methylphenyl]-1,5-dimethylpyrazin-2(1H)-one] were 9.42 nM and 50.4 nM.
Taken in the same sequence, the figures for `Cc1ncnc(C)c1-c1ccc(Oc2nccc3occc23)c2ccncc12` [Example 116, 8-(4,6-dimethylpyrimidin-5-yl)-5-(furo[3,2-c]pyridin-4-yloxy)isoquinoline] were 481 nM and 3440 nM.
In turn, `OCCCOc1cc(Oc2nccc3occc23)ccc1-c1cccc2nccn12` [Example 195, 3-[5-(furo[3,2-c]pyridin-4-yloxy)-2-(imidazo[1,2-a]pyridin-5-yl)phenoxy]propan-1-ol, trifluoroacetate salt] returned a Ki in experiment [1] of 90.4 nM. In experiment [2], the response was half-maximal at 565 nM (EC50).
Taken in the same sequence, the figures for `Cc1cc(Nc2nccc3occc23)ccc1-c1cccc2nccn12` [Example 17, N-[4-(Imidazo[1,2-a]pyridin-5-yl)-3-methylphenyl]furo[3,2-c]pyridin-4-amine] were 111 nM and 957 nM.
Taken in the same sequence, the figures for `COc1cc(Oc2nccc3occc23)ccc1-c1cccc2nccn12` [Example 34, 4-[4-(imidazo[1,2-a]pyridin-5-yl)-3-methoxyphenoxy]furo[3,2-c]pyridine] were 20 nM and 182 nM.
With `Cc1cc(Oc2nccc3occc23)ccc1-c1c(C)ncnc1N1Cc2cncnc2C1` [Example 175, 6-{5-[4-(furo[3,2-c]pyridin-4-yloxy)-2-methylphenyl]-6-methylpyrimidin-4-yl}-6,7-dihydro-5H-pyrrolo[3,4-d]pyrimidine, formate salt], in experiment [1], the affinity corresponds to a Ki of 41.4 nM. Also, in experiment [2], the EC50 is 475 nM.
Taken in the same sequence, the figures for `Cc1cc(Oc2nccc3occ(C4CC4)c23)ccc1-c1c(C)ncnc1C` [Example 209, 3-cyclopropyl-4-[4-(4,6-dimethylpyrimidin-5-yl)-3-methylphenoxy]furo[3,2-c]pyridine, trifluoroacetate salt] were 131 nM and 5620 nM.
On to `Cc1cc(Oc2nccc3occc23)ccc1-c1cccc2[nH]c(=O)ccc12` [Example 59, 5-[4-(furo[3,2-c]pyridin-4-yloxy)-2-methylphenyl]quinolin-2(1H)-one], for which, in experiment [1], the Ki turned out to be 103 nM. Besides, in experiment [2], the EC50 was 1010 nM and 1150 nM.
`COc1cc(Oc2nccc3occc23)ccc1-c1cccnc1C` [Example 181, 4-[3-methoxy-4-(2-methylpyridin-3-yl)phenoxy]furo[3,2-c]pyridine] yielded a Ki in experiment [1] of 53.1 nM. In experiment [2], a half-maximal effect (EC50) was put at 803 nM.
On to `Cc1cc(Oc2nccc3occc23)ccc1-c1c(C)nc(O)c2nccn12` (single isomer, unassigned) [Example 105, 5-[4-(furo[3,2-c]pyridin-4-yloxy)-2-methylphenyl]-6-methylimidazo[1,2-a]pyrazin-8-ol], for which, in experiment [1], the affinity, expressed as Ki, was 24.8 nM. In experiment [2], a half-maximal effect (EC50) was put at 297 nM.
On the same counts, the results for `Cc1ncnc(C)c1-c1ccc(Oc2nccc3occc23)cc1OCc1nc(C2CC2)no1` [Example 108, 4-{3-[(3-cyclopropyl-1,2,4-oxadiazol-5-yl)methoxy]-4-(4,6-dimethylpyrimidin-5-yl)phenoxy}furo[3,2-c]pyridine] are 55.5 nM and 673 nM.
On to `Cc1cc(Oc2nccc3occc23)ccc1-c1c(C)ncnc1C#N` (single isomer, unassigned) [Example 82, (+)-5-[4-(furo[3,2-c]pyridin-4-yloxy)-2-methylphenyl]-6-methylpyrimidine-4-carbonitrile], for which the affinity in experiment [1] corresponds to a Ki of 21.3 nM. In addition, the EC50 in experiment [2] was 113 nM and 781 nM.
For `Cc1cc(Oc2nccc3occc23)ccc1-c1c(C)ncnc1N1Cc2cnn(C)c2C1` [Example 164, 4-{3-methyl-4-[4-methyl-6-(1-methyl-4,6-dihydropyrrolo[3,4-c]pyrazol-5(1H)-yl)pyrimidin-5-yl]phenoxy}furo[3,2-c]pyridine, formate salt], affinity in experiment [1] was put at a Ki of 15.2 nM. Besides, a half-maximal effect in experiment [2] (EC50) was put at 625 nM.
In experiment [1], `Cc1cc(Oc2nccc3occc23)ccc1-c1c(C)nc2cnccn12` [Example 85, 3-[4-(furo[3,2-c]pyridin-4-yloxy)-2-methylphenyl]-2-methylimidazo[1,2-a]pyrazine] displayed a Ki of 75.3 nM. For the same compound, the EC50 in experiment [2] was 1120 nM and 4880 nM.
Take `Cc1cc(Oc2nccc3occc23)ccc1-c1c(C)nc(O)nc1C` [Example 152, 5-[4-(furo[3,2-c]pyridin-4-yloxy)-2-methylphenyl]-4,6-dimethylpyrimidin-2-ol]: the Ki in experiment [1] stood at 79.5 nM. Besides, in experiment [2], the response was half-maximal at 565 nM (EC50).
Taken in the same sequence, the figures for `Cc1cc(-c2c(C)ncc3nccn23)c(C)cc1Oc1nccc2occc12` [Example 101, 5-[4-(furo[3,2-c]pyridin-4-yloxy)-2,5-dimethylphenyl]-6-methylimidazo[1,2-a]pyrazine] were 431 nM and 3450 nM.
Taken in the same sequence, the figures for `Cc1cc(Oc2nccc3occc23)ccc1-c1c(C)ncnc1N1Cc2cn[nH]c2C1` [Example 96, 4-{4-[4-(4,6-dihydropyrrolo[3,4-c]pyrazol-5(1H)-yl)-6-methylpyrimidin-5-yl]-3-methylphenoxy}furo[3,2-c]pyridine, trifluoroacetate salt] were 24.5 nM and 306 nM.
Take `c1cc(-c2ccc(Oc3nccc4occc34)cc2)n2ccnc2c1` [Example 197, 4-[4-(imidazo[1,2-a]pyridin-5-yl)phenoxy]furo[3,2-c]pyridine]: the Ki in experiment [1] turned out to be 97 nM. The EC50 in experiment [2] was 801 nM and 1090 nM.
In experiment [1], `Cc1ncnc(C)c1-c1ccc(Oc2nccc3occc23)cc1` [Example 77, 4-[4-(4,6-dimethylpyrimidin-5-yl)phenoxy]furo[3,2-c]pyridine] gave a Ki of 45.6 nM. For the same compound, the EC50 in experiment [2] was 200 nM and 674 nM.
With `Cc1cc(Oc2nccc3occc23)ccc1-c1cccnc1C1CC1` [Example 88, 4-[4-(2-cyclopropylpyridin-3-yl)-3-methylphenoxy]furo[3,2-c]pyridine], in experiment [1], the Ki was 117 nM. In addition, the EC50 in experiment [2] is 710 nM and 1520 nM.
`Cc1cc(Sc2nccc3occc23)ccc1-c1c(C)ncnc1C` [Example 155, 4-{[4-(4,6-dimethylpyrimidin-5-yl)-3-methylphenyl]sulfanyl}furo[3,2-c]pyridine] gave an inhibition constant (Ki) in experiment [1] of 138 nM. Also, the response in experiment [2] was half-maximal at 1010 nM (EC50).
In experiment [1], `Cc1cc(Oc2nccc3occc23)ccc1-c1c(C)nn(C)c(=O)c1C` [Example 159, 5-[4-(furo[3,2-c]pyridin-4-yloxy)-2-methylphenyl]-2,4,6-trimethylpyridazin-3(2H)-one] showed a Ki of 11.6 nM. Moreover, in experiment [2], the EC50 came to 212 nM.
